# Columns and labels:
# Type in all cases: in vivo, cat
# [1] = test system: feline model of GERD; test: Esophageal motility: peristaltic contraction amplitude after spontaneous dry swallows and balloon distension in cats
# Method: (§1) Experiments to determine the effects of MKC-733, omeprazole or the combination of MKC-733 and omeprazole on LESP, lower esophageal pH, esophageal motility and TLESR, in a feline model of GERD were conducted.
# (§2) Each animal was fitted with a water-perfused sleeve catheter (Andorfer Inc, Greendale, Wis.) attached via pressure transducers to a minimally compliant hydrolytic pump. The sleeve was positioned within the LES with the tip placed into the stomach. The total distance between recording site 0 (tip in the stomach) and recording site 2 was 4 cm. This 4 cm region was referred to as site 1 and the pressure was simultaneously recorded along this region. […] Throughout the experiment, the output from the pressure transducers was manometrically recorded using the PowerLab Chart 5 data acquisition program (ADInstruments, Colorado Springs, Colo.) on a computer using a Windows XP operating system.
# The manometric pressure recordings at sites 1-5 of the sleeve catheter were recorded during primary peristalsis induced by three spontaneous dry swallows (SDS) and secondary peristalsis induced by 3 balloon distensions (BD; distension of a balloon catheter 2 cm in diameter for 5 second placed in the mid portion of the esophagus).
# Esophageal motility was characterized based on the amplitude of the contractions recorded at sites 2-5 of the catheter in response to three SDS and three BD. […]
# [2] = test system: feline model of GERD; test: Lower esophageal pH monitoring during gastroesophageal reflux in sedated cats; conditions: naive, MKC-733 1.0 and 10 mg/kg i.v.
# Method: as §1
# An Orion II pH probe (Medical Measurements Systems), running along with the manometric catheter, was positioned with one pH measuring site in the stomach and a second pH measuring site in the distal esophagus. pH was monitored and recorded simultaneously with the manometric recordings using a computerized data acquisition system (Medical Measurements Systems).
# The pH in the lower esophagus was monitored at the same time as the manometric pressure. The pH was recorded for each measurement regimen set forth in Experiments 1 and 2.
# All animals were acclimated to the facility for one week prior to testing. […]
# (§3) Following instrumentation, baseline values of LESP, esophageal pH, esophageal peristalsis and TLESR were measured as described above. […]
# Data is presented as mean±SEM. […] Significance of LESP treatment effects within and between experiments was evaluated using 2-Way repeated measures ANOVA. […] Significance of treatment effects for pH was evaluated using a nonparametric one-way repeated measures ANOVA (Friedman Test). […]
# In 2 of the 5 animals, the 10 mg/kg dose was not administered. In 1 of the 3 remaining animals, pH was also not recorded following the […] dose.
# [3] = test system: feline model of GERD; test: Lower esophageal sphincter pressure (LESP), manometric recording in sedated cats; conditions: MKC-733 1.0 and 10 mg/kg i.v., naive and omeprazole pretreated, FIG. 2
# Method: as §1
# The cats used in the experiments were fasted overnight and sedated with ketamine (15-20 mg/kg intramuscular injection). A butterfly catheter filled with heparinized sterile saline was placed into the brachial vein and used for supplemental ketamine anesthesia and drug administration.
# as §2, with “The sleeve was positioned within the LES with the tip placed into the stomach. The total distance between recording site 0 (tip in the stomach) and recording site 2 was 4 cm.” left out
# The manometric pressure recording at site 1 of the catheter provided the baseline (at rest) LESP for each animal. The baseline LESP was recorded for each measurement regimen set forth in Experiments 1 and 2 below, and then compared. […]
# as §3
smiles,measurement,setting,value
"O=C(N[C@H]1CN2CCC1CC2)c1c[nH]c2ccsc2c1=O [MKC-733, (R)—N-1-azabicyclo[2.2.2]oct-3-yl-4,7-dihydro-7-oxothieno[3,2-b]pyridine-6-carboxamide]",oral-to-aboral peristaltic contraction amplitude,"[1]; MKC-733 1.0 and 10 mg/kg i.v., normalized to vehicle, FIG. 5",dose-dependent significant enhancement
same,difference in effect on peristaltic contraction amplitude between naive cats and those pretreated with omeprazole,"[1]; MKC-733 i.v., data not shown",no significant differences
same,percentage of time during gastroesophageal (GER) episodes when lower esophageal pH was greater than 4.0,[2]; FIG. 3,positive trend that appeared dose-dependent
same,nadir pH values during GER,[2]; FIG. 4,did not effect nadir pH values
same,LESP normalized to vehicle controls within experiments,[3],statistically significant dose-dependent increase in LESP

# From patent US20090048287A1, “Compositions useful for treating gastrointestinal motility disorders” (priority 2003, published 2009)
